Assay results published in patent US12173276B2 (Alliance for Sustainable Energy, LLC, priority 2021, dated 2024).

Tested on: P. renovo
Test: plating assay to determine phosphorus source utilization capacity
Assay type: cell-based, Picochlorum renovo
Details: wild-type P. renovo, agar plates, 0.313 mM phosphite addition, 5-day outgrowth
Protocol: FIG. 1 depicts a plating assay to determine phosphorus source utilization capacity in P. renovo.
Microalgae were cultivated under constant illumination at […] of light, 2% CO2, and constant temperature of 33° C. These conditions were utilized to generate seed cultures for transformation and outgrowth of transformants to generate clonal isolates on agar plates. Media was comprised of a modified f/2 recipe, as described previously. For phosphorus source utilization analyses, agar plates were prepared as described previously, utilizing 8.75 g/L salinity, via dilution of seawater. […] Approximately 4.75×10^8 early log phase cells were plated and incubated under the above conditions; plates were imaged after 5 days of growth.

With `O=[PH](O)O` [phosphite, Sodium phosphite dibasic pentahydrate] the “bleaching compared to control with no added phosphorus source” value was “noticeable bleaching occurred” and the “growth with phosphite as the sole phosphorus source” value was “no growth was observed”.
